# In PubChem BioAssay AID330 (DTP/NCI, 2004):
# Several values for one entry are separate records, joined by “and”; a condition that tells them apart may be missing. Equal entries are not always repeated. Toxic doses and inconclusive results are not listed.
# System: P388 leukemia ip, CD2F1 mice, survival T/C
# Assay: NCI In Vivo Anticancer Drug Screen. Data for tumor model P388 Leukemia (intraperitoneal) in CD2F1 (CDF1) mice
# Conditions: endpoint: median survival time, higher = longer survival
# Outline: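 Mice carrying the transplanted tumor received test compound or vehicle. Survival was recorded in each group, and the value is the treated-group measurement divided by that of the vehicle-treated control group.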
# [1] = dose: 60.0 mg/kg/injection, schedule: Q01DX005 (ip), vehicle: saline with Tween-80
# [2] = dose: 120.0 mg/kg/injection, schedule: Q01DX005 (ip), vehicle: saline with Tween-80
# [3] = dose: 50.0 mg/kg/injection, schedule: Q01DX005 (ip), vehicle: Klucel (hydroxypropylcellulose) (HPC)
# [4] = dose: 100.0 mg/kg/injection, schedule: Q01DX005 (ip), vehicle: Klucel (hydroxypropylcellulose) (HPC)
# [5] = dose: 200.0 mg/kg/injection, schedule: Q01DX005 (ip), vehicle: Klucel (hydroxypropylcellulose) (HPC)
# [6] = dose: 50.0 mg/kg/injection, schedule: Q01DX005 (ip), vehicle: saline
# [7] = dose: 100.0 mg/kg/injection, schedule: Q01DX001 (ip), vehicle: Klucel (hydroxypropylcellulose) (HPC)
# [8] = dose: 240.0 mg/kg/injection, schedule: Q01DX005 (ip), vehicle: saline with Tween-80
# [9] = dose: 200.0 mg/kg/injection, schedule: Q01DX001 (ip), vehicle: Klucel (hydroxypropylcellulose) (HPC)
# [10] = dose: 400.0 mg/kg/injection, schedule: Q01DX001 (ip), vehicle: Klucel (hydroxypropylcellulose) (HPC)
smiles,measurement,setting,value
Cc1nccc(N[N+](=O)[O-])c1C,T/C,"dose: 12.5 mg/kg/injection, schedule: Q01DX009 (ip), vehicle: other",100 % of control
same,T/C,"dose: 25.0 mg/kg/injection, schedule: Q01DX009 (ip), vehicle: other",93 % of control
same,T/C,"dose: 50.0 mg/kg/injection, schedule: Q01DX009 (ip), vehicle: other",117 % of control
same,T/C,"dose: 100.0 mg/kg/injection, schedule: Q01DX009 (ip), vehicle: other",100 % of control
same,T/C,"dose: 200.0 mg/kg/injection, schedule: Q01DX009 (ip), vehicle: other",103 % of control
COC(=O)c1nnn(-c2cccc(Cl)c2)c1N,T/C,[1],95 % of control
same,T/C,[2],95 % of control
CC(C)=CCC(O)C1=CC(=O)c2c(O)ccc(O)c2C1=O (configuration not stated),T/C,"dose: 0.5 mg/kg/injection, schedule: Q01DX009 (ip), vehicle: saline with Tween-80",102 % of control
same,T/C,"dose: 1.0 mg/kg/injection, schedule: Q01DX009 (ip), vehicle: saline with Tween-80",110 % of control
same,T/C,"dose: 1.25 mg/kg/injection, schedule: Q01DX009 (ip), vehicle: Klucel (hydroxypropylcellulose) (HPC)",107 % of control and 109 % of control and 110 % of control
same,T/C,"dose: 2.0 mg/kg/injection, schedule: Q01DX009 (ip), vehicle: saline with Tween-80",110 % of control
same,T/C,"dose: 2.5 mg/kg/injection, schedule: Q01DX009 (ip), vehicle: Klucel (hydroxypropylcellulose) (HPC)",107 % of control and 108 % of control and 112 % of control
same,T/C,"dose: 2.5 mg/kg/injection, schedule: Q01DX009 (ip), vehicle: saline with Tween-80",102 % of control
same,T/C,"dose: 5.0 mg/kg/injection, schedule: Q01DX009 (ip), vehicle: Klucel (hydroxypropylcellulose) (HPC)",117 % of control and 120 % of control
same,T/C,"dose: 5.0 mg/kg/injection, schedule: Q01DX009 (ip), vehicle: saline with Tween-80",108 % of control
same,T/C,"dose: 10.0 mg/kg/injection, schedule: Q01DX009 (ip), vehicle: Klucel (hydroxypropylcellulose) (HPC)",110 % of control and 120 % of control
same,T/C,"dose: 15.0 mg/kg/injection, schedule: Q01DX009 (ip), vehicle: saline with Tween-80",100 % of control
same,T/C,"dose: 15.0 mg/kg/injection, schedule: Q04DX003 (ip), vehicle: saline with Tween-80",100 % of control
same,T/C,"dose: 30.0 mg/kg/injection, schedule: Q01DX009 (ip), vehicle: saline with Tween-80",90 % of control
same,T/C,"dose: 30.0 mg/kg/injection, schedule: Q04DX003 (ip), vehicle: saline with Tween-80",109 % of control
same,T/C,"dose: 50.0 mg/kg/injection, schedule: Q01DX005 (ip), vehicle: saline with Tween-80",97 % of control
same,T/C,"dose: 100.0 mg/kg/injection, schedule: Q01DX005 (ip), vehicle: saline with Tween-80",91 % of control
same,T/C,"dose: 200.0 mg/kg/injection, schedule: Q01DX005 (ip), vehicle: saline with Tween-80",99 % of control
COc1cccc2c1C(=O)c1c(O)c3c(c(O)c1C2=O)C[C@@](O)(C(C)=O)C[C@@H]3OC1CC(N)C(C(C)O)O1 (some centres not stated),T/C,"dose: 3.12 mg/kg/injection, schedule: Q04DX003 (ip), vehicle: distilled water + Tween-80",117 % of control and 101 % of control
same,T/C,"dose: 6.25 mg/kg/injection, schedule: Q04DX003 (ip), vehicle: distilled water + Tween-80",112 % of control and 92 % of control
same,T/C,"dose: 12.5 mg/kg/injection, schedule: Q04DX003 (ip), vehicle: distilled water + Tween-80",114 % of control and 104 % of control
same,T/C,"dose: 25.0 mg/kg/injection, schedule: Q04DX003 (ip), vehicle: distilled water + Tween-80",117 % of control and 111 % of control
same,T/C,"dose: 50.0 mg/kg/injection, schedule: Q04DX003 (ip), vehicle: distilled water + Tween-80",117 % of control
same,T/C,"dose: 100.0 mg/kg/injection, schedule: Q04DX003 (ip), vehicle: distilled water + Tween-80",119 % of control
CC(C)CCNCC(N)C(=O)O (configuration not stated),T/C,"dose: 100.0 mg/kg/injection, schedule: Q04DX003 (ip), vehicle: Klucel (hydroxypropylcellulose) (HPC)",100 % of control
same,T/C,"dose: 200.0 mg/kg/injection, schedule: Q04DX003 (ip), vehicle: Klucel (hydroxypropylcellulose) (HPC)",98 % of control
same,T/C,"dose: 400.0 mg/kg/injection, schedule: Q04DX003 (ip), vehicle: Klucel (hydroxypropylcellulose) (HPC)",99 % of control
CC(C)N(CCn1cnc2c(N)ncnc21)C(C)C,T/C,[3],100 % of control
same,T/C,[4],97 % of control
CC(C)=CC(O)C/C(C)=C/CC/C(C)=C/CCC1(C)C(CCCO)/C(=C(/C)C=O)CCC1(C)O (configuration not stated),T/C,"dose: 25.0 mg/kg/injection, schedule: Q01DX005 (ip), vehicle: Klucel (hydroxypropylcellulose) (HPC)",106 % of control
same,T/C,[3],106 % of control
same,T/C,[4],119 % of control
same,T/C,[5],116 % of control
CNC(=O)c1n[nH]c(=S)[nH]c1=O,T/C,[3],111 % of control
same,T/C,[6],100 % of control
same,T/C,[4],104 % of control
same,T/C,"dose: 100.0 mg/kg/injection, schedule: Q01DX005 (ip), vehicle: saline",101 % of control
same,T/C,[5],101 % of control
same,T/C,"dose: 200.0 mg/kg/injection, schedule: Q01DX005 (ip), vehicle: saline",101 % of control
Cn1c(=O)c2c(nnc(-c3ccc(Cl)cc3)[n+]2[O-])n(C)c1=O,T/C,[7],106 % of control
C[C@H]1COC(c2ccccn2)=N1,T/C,"dose: 60.0 mg/kg/injection, schedule: Q01DX005 (ip), vehicle: saline",105 % of control
same,T/C,"dose: 120.0 mg/kg/injection, schedule: Q01DX005 (ip), vehicle: saline",106 % of control
same,T/C,"dose: 240.0 mg/kg/injection, schedule: Q01DX005 (ip), vehicle: saline",96 % of control
CNc1ncn(-c2c(C)cccc2C)c(=O)n1,T/C,[1],101 % of control and 106 % of control
same,T/C,[2],108 % of control
same,T/C,[8],117 % of control
CN(C)CCCNC(=O)c1ccc2c(c1O)C(=O)c1ccccc1C2=O,T/C,"dose: 12.5 mg/kg/injection, schedule: Q01DX005 (ip), vehicle: saline",105 % of control
same,T/C,"dose: 25.0 mg/kg/injection, schedule: Q01DX005 (ip), vehicle: saline",109 % of control
same,T/C,[6],114 % of control
Cc1c2c(nn1C)CCOC2=O,T/C,[7],100 % of control
same,T/C,[9],101 % of control
same,T/C,[10],95 % of control
COC(=O)/C=C/c1ccccc1-c1ccccc1/C=C/C(=O)OC,T/C,"dose: 100.0 mg/kg/injection, schedule: Q04DX003 (ip), vehicle: saline",105 % of control
same,T/C,"dose: 200.0 mg/kg/injection, schedule: Q04DX003 (ip), vehicle: saline",102 % of control
same,T/C,"dose: 400.0 mg/kg/injection, schedule: Q04DX003 (ip), vehicle: saline",100 % of control
N#CCCNc1ccc(NCCC#N)c2c1C(=O)c1c(O)ccc(O)c1C2=O,T/C,"dose: 25.0 mg/kg/injection, schedule: Q04DX002 (ip), vehicle: saline with Tween-80",103 % of control
same,T/C,"dose: 50.0 mg/kg/injection, schedule: Q04DX002 (ip), vehicle: saline with Tween-80",94 % of control
same,T/C,"dose: 100.0 mg/kg/injection, schedule: Q04DX002 (ip), vehicle: saline with Tween-80",101 % of control
same,T/C,"dose: 200.0 mg/kg/injection, schedule: Q04DX002 (ip), vehicle: saline with Tween-80",104 % of control
O=C1Cc2ccccc2N1C(=O)c1ccccc1Br,T/C,[7],106 % of control
same,T/C,[9],98 % of control
same,T/C,[10],90 % of control
O=C1ON=C(c2ccccc2)/C1=C\C=C\c1ccccc1,T/C,[1],95 % of control
same,T/C,[2],98 % of control
same,T/C,[8],103 % of control
CN(C)C(=[Se])[Se]C(=[Se])N(C)C,T/C,"dose: 3.75 mg/kg/injection, schedule: Q01DX005 (ip), vehicle: Klucel (hydroxypropylcellulose) (HPC)",99 % of control
same,T/C,"dose: 7.5 mg/kg/injection, schedule: Q01DX005 (ip), vehicle: Klucel (hydroxypropylcellulose) (HPC)",99 % of control
same,T/C,"dose: 15.0 mg/kg/injection, schedule: Q01DX005 (ip), vehicle: Klucel (hydroxypropylcellulose) (HPC)",100 % of control
C[C@]12C=CC(=O)NC[C@@H]1CC[C@@H]1[C@@H]2CC[C@]2(C)[C@@H](OC(=O)COc3ccc(N(CCCl)CCCl)cc3)CC[C@@H]12,T/C,"dose: 7.5 mg/kg/injection, schedule: Q01DX005 (ip), vehicle: saline with Tween-80",120 % of control
same,T/C,"dose: 15.0 mg/kg/injection, schedule: Q01DX005 (ip), vehicle: saline with Tween-80",120 % of control
same,T/C,"dose: 30.0 mg/kg/injection, schedule: Q01DX005 (ip), vehicle: saline with Tween-80",151 % of control
same,T/C,[1],198 % of control and 255 % of control
same,T/C,[2],157 % of control
CCN(CC)CC(=O)O[C@]1(CC)C(=O)OCc2c1cc1n(c2=O)Cc2cc3ccccc3nc2-1,T/C,"dose: 0.5 mg/kg/injection, schedule: Q01DX005 (ip), vehicle: water",110 % of control
same,T/C,"dose: 1.0 mg/kg/injection, schedule: Q01DX005 (ip), vehicle: water",115 % of control
same,T/C,"dose: 2.0 mg/kg/injection, schedule: Q01DX005 (ip), vehicle: water",115 % of control
same,T/C,"dose: 8.0 mg/kg/injection, schedule: Q01DX005 (ip), vehicle: water",161 % of control and 163 % of control
